Results as given in patent publication US7166299B2, “Preparation of aqueous clear solution dosage forms with bile acids” (priority 1998, dated 2007).
Values after ≈ are worked out from the molar mass of the structure shown. Values joined by “and” are separate entries in the source; they are usually repeats but may differ in a detail not shown here. Identical values can stand only once. Values belong to the compound of their own block, whether it stands above or below them.

Assays:
[1] = Solution stability test (HPLC) of single bile acid with maltodextrin in aqueous solution, Example I; format: physicochemical
Method: (§1) The stability of dosage formulations of the invention were evaluated by measuring the concentration of the relevant bile acid over time in preparations comprising soluble bile acid, a high molecular weight aqueous soluble starch conversion product, and water at various pH and temperature levels. The retention time of each bile acid may be adjusted as needed to permit individual analysis each bile acid present in a complex samples, i.e. a sample having a plurality of bile acids.
(§2) The stability tests were conducted on three different aqueous solution systems: […].
(§3) The stability tests were performed with HPLC and microscope light at various pH conditions under the normal and accelerated conditions. Accelerated conditions for testing pharmaceutical compositions have been described (Remington, The Science and Practice of Pharmacy, 19th ed., p. 640). […] Thus, the formulations of the examples are suitable for preparing a commercial liquid dosage form. […] Some formulations remain stable for over 2 years.
(§4) For the solution stability test for each bile acid, HPLC was used to measure the concentration of the relevant soluble bile acid under the following conditions: the elution solvent of 0.02 M KH2PO4:acetonitrile in a ratio of 55:45, with a pH of 3.01, the flow rate was 0.8 mL/min., the injection volume was 20 μL, wave length for detection was 195 nm. In the tables, the concentration of the indicated bile acid salt for each of the three numbered trials and the average thereof is reported on each line. The percentage indicates the relative concentration of the bile acid salt after incubation for a certain amount of time in comparison with the initial concentration.
100 mL of the aqueous solution in which one of the above bile acids is dissolved was prepared. Into the resulting clear solution, maltodextrin, a high molecular weight aqueous soluble starch conversion product, was added with agitation at room temperature. Purified water was added to adjust the total volume to be 100 mL. According to the instant invention and all examples, purified water is deionized, distilled deionized-distilled water, or a grade commonly used for pharmaceutical preparations.

[2] = Solution stability test (HPLC) of mixed bile acids with maltodextrin in aqueous solution, Example II; format: physicochemical; conditions: Table 2: pH 1, 50° C.
Method: as §1, §2, §3, §4
Into the resulting clear solution, maltodextrin was added with agitating at room temperature. Purified water was added to adjust the total volume to be 100 mL.

[3] = cited from earlier work
[4] = Hematic levels of UDCA and glyco UDCA after oral administration of 200 mg UDCA aqueous solution to three healthy men (Example VI); format: in vivo, human; conditions: male, human, in vivo, po, 200 mg
Method: The aqueous solution dosage forms, according to this invention, containing 200 mg of ursodeoxycholic acid (UDCA), were prepared according to the method described in the above-described Example III and were administered to three healthy men having normal body weight after fasting. The hematic levels of UDCA and glyco UDCA were evaluated by means of well known chemical methods. After applying buffered serum to sep-pak column, methanol eluate was derivatized with phenacyl bromide at 80° C. for 45 minutes. These phenacyl bromide derivatives were dissolved in acetonitrile in preparation for HPLC. The experimental results of the absorption measured at certain times after dosage administration include the total absorption expressed as the area under the serum concentration-time curve (AUC: μg/mL×hours), the maximum hematic concentration (Cmax; μg/mL) that has been obtained, and the time (Tmax; hour) in which said maximum concentration has been obtained.
The experimental pharmacokinetic tests of the aqueous solution dosage forms according to this invention carried out on men show substantial improvement in AUC, Cmax and Tmax in comparison with the best results from any dosage forms known presently.
Table 4A and Table 4B show plasma concentration of UDCA and GUDCA measured in 3 men over time following on oral administration of the UDCA and GUDCA containing formulations according to Example VI and comparison of results against results of others employing different pharmaceutical formulations of UDCA.

Structure (SMILES): C[C@H](CCC(=O)O)[C@H]1CC[C@H]2[C@@H]3[C@H](O)C[C@@H]4C[C@H](O)CC[C@]4(C)[C@H]3C[C@H](O)[C@]12C [CA, cholic acid (3α, 7α, 12α-trihydroxy-5β-cholanic acid)]
Percentage of day 0 concentration ([1]; Table 1A: pH 7, 50° C., day 0): 100.0% | Percentage of day 0 concentration ([1]; Table 1A: pH 7, 50° C., day 4): 95.4% | Percentage of day 0 concentration ([1]; Table 1A: pH 7, 50° C., day 7): 100.8% | Percentage of day 0 concentration ([1]; Table 1A: pH 7, 50° C., day 20): 103.0% | Percentage of day 0 concentration ([1]; Table 1B: pH 10, 50° C., day 0): 100.0% | Percentage of day 0 concentration ([1]; Table 1B: pH 10, 50° C., day 4): 99.1% | Percentage of day 0 concentration ([1]; Table 1B: pH 10, 50° C., day 7): 103.6% | Percentage of day 0 concentration ([1]; Table 1B: pH 10, 50° C., day 20): 106.4% | Percentage of day 0 concentration ([2]; day 0): 100.0% | Percentage of day 0 concentration ([2]; day 4): 89.8% | concentration by HPLC, Average ([2]; day 4): 0.457 | concentration by HPLC, trials #1-#3 ([2]; day 4): 0.453 and 0.466 | Percentage of day 0 concentration ([2]; day 7): 86.9% | concentration by HPLC, Average ([2]; day 7): 0.443 | concentration by HPLC, trials #1-#3 ([2]; day 7): 0.434 and 0.426 and 0.468 | Percentage of day 0 concentration ([2]; day 20): 40.6% | concentration by HPLC, Average ([2]; day 20): 0.207 | concentration by HPLC, trials #1-#3 ([2]; day 20): 0.207 and 0.206

Structure (SMILES): C[C@H](CCC(=O)O)[C@H]1CC[C@H]2[C@@H]3CC[C@@H]4C[C@H](O)CC[C@]4(C)[C@H]3C[C@H](O)[C@]12C [DCA, deoxycholic acid (3α, 12α-dihydroxy-5β-cholanic acid)]
solubility in the gastric juices and in aqueous hydrochloric acid solution [3]: especially insoluble | solubility ([3]; water): 0.24 mg/mL (≈ 611 µM)

AUC ([4]; AUC, mean): 4.38 ± 1.17 µg·h/mL | Cmax ([4]; individual men #1-#3): 1.92 µg/mL | Cmax ([4]; mean): 1.6 µg/mL | Tmax ([4]; Tmax, mean): 3.5 ± 1.5 h
Structure (SMILES): C[C@H](CCC(=O)NCC(=O)O)[C@H]1CC[C@H]2[C@@H]3[C@@H](O)C[C@@H]4C[C@H](O)CC[C@]4(C)[C@H]3CC[C@]12C [GUDCA, glycoursodeoxycholic acid]

Structure (SMILES): C[C@H](CCC(=O)NCCS(=O)(=O)O)[C@H]1CC[C@H]2[C@@H]3[C@@H](O)C[C@@H]4C[C@H](O)CC[C@]4(C)[C@H]3CC[C@]12C [Tauroursodeoxycholic acid]
solubility in hydrochloric acid solution [3]: insoluble | solubility in the gastric juices and in aqueous hydrochloric acid solution [3]: especially insoluble

Structure (SMILES): C[C@H](CCC(=O)O)[C@H]1CC[C@H]2[C@@H]3C[C@H](O)[C@@H]4C[C@H](O)CC[C@]4(C)[C@H]3CC[C@]12C [hyodeoxycholic acid]
solubility in the gastric juices and in aqueous hydrochloric acid solution [3]: especially insoluble

Structure (SMILES): C[C@H](CCC(=O)NCCS(=O)(=O)O)[C@H]1CC[C@H]2[C@@H]3[C@H](O)C[C@@H]4C[C@H](O)CC[C@]4(C)[C@H]3CC[C@]12C [taurochenodeoxycholic acid]
solubility in hydrochloric acid solution [3]: insoluble | solubility in the gastric juices and in aqueous hydrochloric acid solution [3]: especially insoluble
